Measured values: PubChem BioAssay (NCI)
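How tested: cells in 96-well plates exposed to compound for 48 hours at five concentrations. TGI is the concentration that stops growth completely.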

Legend:
Assay in all cases: DTP human tumour cell line panel, 48 h
OVCAR-5 ovarian = system: OVCAR-5 ovarian
SN12C renal = system: SN12C renal
MCF7 breast = system: MCF7 breast
NCI/ADR-RES ovarian = system: NCI/ADR-RES ovarian
UO-31 renal = system: UO-31 renal
RXF 393 renal = system: RXF 393 renal
LOX IMVI melanoma = system: LOX IMVI melanoma
SNB-19 CNS = system: SNB-19 CNS
OVCAR-8 ovarian = system: OVCAR-8 ovarian
COLO 205 colon = system: COLO 205 colon
SK-MEL-5 melanoma = system: SK-MEL-5 melanoma
HOP-92 NSCLC = system: HOP-92 NSCLC
HT29 colon = system: HT29 colon
U251 CNS = system: U251 CNS
NCI-H460 lung = system: NCI-H460 lung
OVCAR-4 ovarian = system: OVCAR-4 ovarian
DU-145 prostate = system: DU-145 prostate
CAKI-1 renal = system: CAKI-1 renal
M14 melanoma = system: M14 melanoma
MDA-MB-435 = system: MDA-MB-435

| Compound | TGI (OVCAR-5 ovarian) [µM] | TGI (SN12C renal) [µM] | TGI (MCF7 breast) [µM] | TGI (NCI/ADR-RES ovarian) [µM] | TGI (UO-31 renal) [µM] | TGI (RXF 393 renal) [µM] | TGI (LOX IMVI melanoma) [µM] | TGI (SNB-19 CNS) [µM] | TGI (OVCAR-8 ovarian) [µM] | TGI (COLO 205 colon) [µM] | TGI (SK-MEL-5 melanoma) [µM] | TGI (HOP-92 NSCLC) [µM] | TGI (HT29 colon) [µM] | TGI (U251 CNS) [µM] | TGI (NCI-H460 lung) [µM] | TGI (OVCAR-4 ovarian) [µM] | TGI (DU-145 prostate) [µM] | TGI (CAKI-1 renal) [µM] | TGI (M14 melanoma) [µM] | TGI (MDA-MB-435) [µM] |
| --- | --- | --- | --- | --- | --- | --- | --- | --- | --- | --- | --- | --- | --- | --- | --- | --- | --- | --- | --- | --- |
| Nc1cc(O)c2cc(N=Nc3ccc(N=Nc4ccc(N=Nc5ccc6cc(S(=O)(=O)O)cc(S(=O)(=O)O)c6c5)c5ccccc45)c4cc(S(=O)(=O)O)ccc34)c(S(=O)(=O)O)cc2c1 | > 100 | > 100 | > 100 | > 100 | > 100 | > 100 | > 100 | > 100 | > 100 | > 100 | > 100 | > 93.3 | > 100 | > 100 | > 100 | > 100 |  |  |  |  |
| Nc1nc(Nc2cc(F)c(Cl)c(F)c2)cc(=O)[nH]1 | > 100 | > 100 | > 100 | > 100 |  |  | > 100 | > 100 | > 100 | > 100 | > 100 | > 100 | > 100 | > 100 | > 100 | > 100 | > 100 | > 100 | > 100 | > 100 |
| COc1ccc(N=C(SSC(=Nc2ccc(OC)cc2)c2ccc([N+](=O)[O-])o2)c2ccc([N+](=O)[O-])o2)cc1 | 5.01 | 4.87 |  |  | 3.01 | 2.92 | 5.05 | 3.26 | 7.71 |  | 19.5 | 6.7 | 5.53 | 1.62 | > 24.3 | 2.92 | 2.92 | 5.87 | 4.98 | 3.93 |
| Cc1ccc(C)c(C(=O)CC2OC(O)C(Cl)C2Cl)c1 (stereo not drawn) | > 100 | > 100 |  |  | > 100 | 86 | 48.4 | > 100 | 33.6 | > 100 | > 100 | 77.3 | > 100 | > 100 | > 100 | > 100 |  | 84.4 | > 100 |  |
| CCOC(=O)c1c(SCCN(CC)CC)n(-c2ccccc2)c(=S)n(-c2ccccc2)c1=O | > 57.6 | 3.4 |  | > 100 | 3.12 | 3.28 | 4.03 | 31.9 | 7.19 | 6.2 | 7.6 | 4.15 | 12.6 | 29.6 | 15.6 | 25.5 | 3.06 | 4.68 | 3.13 | 4.81 |
| CCOC(=O)c1sc2nc(SC)nc3c2c1NCN3c1ccccc1Cl | > 100 | > 100 |  | > 100 | > 100 | 73 | > 100 | > 100 | > 100 | > 100 | > 100 | 57.6 | > 100 | > 100 | > 100 | > 100 | > 100 | > 100 | > 100 | > 100 |
| CC1=C(C(=O)OC(C)(C)C)C(c2ccc([N+](=O)[O-])cc2)C(C(=O)OC(C)(C)C)=C(C)N1 | 34.9 | 35.4 | 31.8 |  | 33.5 | 36.2 | 32.9 | 75.8 | 42.3 | 39.8 | 32.9 | 29.7 | 48.8 | 39.3 | 38.6 | 37.4 | 62.4 | 56.4 | 47.6 | 57.9 |
| N=c1sc(N2CCOCC2)nn1CC(=O)c1ccccc1 | > 100 | > 100 | > 100 | > 100 | > 100 | > 100 |  | > 100 | > 100 | > 100 | > 100 |  | > 100 | > 100 | > 100 | > 100 | > 100 | > 100 | > 100 | > 100 |
| Nc1nc2c(ccc3ccccc32)[nH]1 | > 10 | > 10 | > 10 | > 10 | > 10 | > 10 | > 10 | > 10 | > 10 | > 10 | > 10 |  | > 10 | > 10 | > 10 | > 10 | > 10 | > 10 | > 10 | > 10 |
| Cn1c(=O)c(C#N)c(O)c2cc3ccccc3nc21 |  | > 100 |  |  | > 100 | > 100 | > 100 | > 100 | > 100 | > 100 | > 100 | > 100 |  | > 100 | > 100 | > 100 |  | > 100 | > 100 |  |
| CCCCCCCCCCCC1=C(O)C(=O)C=C(O)C1=O | 24.3 | 12.9 | 42.2 | 16.4 | 14 | 54.6 | 38 | 25.7 | 4.7 | 27.9 | 10.4 | 11.7 | 50.2 | 22.1 | 9.98 | 33.2 |  | 15.7 |  |  |
| O=C1Cc2c([nH]c3c(Br)cccc23)-c2ccccc2N1 | > 100 | > 100 | > 100 | > 100 | > 100 |  | > 100 | > 100 | > 100 | > 100 | > 100 |  | > 100 | > 100 | > 100 |  | > 100 |  | > 100 | > 100 |
| O=C(Nc1nc2ccc([N+](=O)[O-])cc2s1)c1cc([N+](=O)[O-])ccc1Cl | 17 | 4.57 |  | 8.23 |  | 15.5 | 5.3 |  | 9.57 | 3.65 | 2.83 | 2.97 | 6.03 | 12.1 |  | > 100 | 31 | 24.3 |  | 16.4 |
